Key:
Format in all cases: cell-based, human
DU-145 cells [1] = experiment: Annexin-V/PI staining assay (flow cytometry); conditions: for population of apoptotic cells: 24 h, control group 5.9%
Experimental: The measurement of cell death was performed by the guidelines of ([35]). Detection of apoptotic/necrotic cells was determined by flow cytometry using the Alexa Fluor® 488 Annexin V/PI (Thermo Fischer Scientific), and the analyses were performed according to the manufacturer’s instructions. […] DMSO (0.1% v/v) was used as the vehicle control. Following 24 h of incubation, the cells were collected with Accutase® (Gibco-Invitrogen®), washed with PBS and resuspended in 200 μl of cold annexin-binding buffer. Next, 10 μl of Alexa Fluor® was added to Annexin V (50 μl/ml) staining buffer, and the mixture was incubated in the dark at 4°C for 15 min. Previously, the analyses, 100 μl of PI (2 μg/ml) was added, and then, the fluorescence was measured by flow cytometry in a FACSCanto flow cytometer (BD Biosciences, USA) using the Diva software. Ten thousand events were evaluated per experiment, and cellular debris was omitted from the analysis.

[2] = system: cleaved caspase-3, -9, and PARP; experiment: Western blot, apoptotic proteins; conditions: DU-145, 24 h
Experimental: Briefly, DU-145 cells were seeded (1.0 × 10^6 cells/well) into six-well plates and maintained to attach at 37°C in 5% CO2. After 24 h, cells were treated with 0.25, 0.50, 1.0, and 1.5 μM of complex (2). DMSO (0.1% v/v) was used as the vehicle control. After 24 h of incubation, cells were collected and suspended in Western blotting lysis buffer (20 mM Tris-HCl pH 7.4, 150 mM NaCl, 1 mM EDTA, and phosphatase and protease inhibitors). Cell lysates were centrifuged at 11,000g for 15 min at 4 °C, and supernatant was collected. Protein concentrations were quantified using the BCA Protein Assay Kit® (Thermo Fischer Scientific), according to the manufacturer’s instructions. For immunoblotting, equal amounts (30 μg) of total protein were electrophoresed in a NuPAGE® 4-12% Bis-Tris gel and transferred to an Invitrolon™ polyvinylidene difluoride (PVDF) membrane (Novex®, Thermo Fischer Scientific) at 100 V for 1 h. PVDF-membrane was washed two times (5 min each) with Tris-buffered saline plus Tween 20 (TBST, Sigma-Aldrich) and blocked in 5% non-fat milk in phosphate buffered saline with Tween®20 (PBST, Sigma-Aldrich) for 1 h at room temperature. […]

DU-145 cells [3] = experiment: Comet assay, DU-145; conditions: DU-145, 0.5 μM, 24 h
Experimental: The comet assay was performed to evaluate DNA damage following the method described by ([37]). Briefly, DU-145 and PNT-2 cells were seeded (1.0 × 10^5 cells/well) in 24-well plates and maintained to attach at 37°C in 5% CO2 for 24 h. After, cells were treated with different concentrations of complex (2) for 24 h. DMSO (0.1% v/v) was used as the vehicle control and methyl methanesulfonate (150 μM, Sigma-Aldrich) as DNA damage inducer. Following 24 h of incubation, the cells were collected, and cell viability assay was performed using trypan blue dye. […] Then, cells were mixed with UltraPure™ Low-Melting-Point Agarose (0.5%, Invitrogen®), and added on pre-coated slides with UltraPure™ Agarose (1.5%, Invitrogen®). After agarose solidification, the slides were immersed in a lysis solution (2.5 M NaCl, 100 mM EDTA, 10 mM Tris, 10% DMSO, 1% Triton X-100, pH 10.4) for 18 h at 4°C. […] The nucleoids were identified in a fluorescence microscope (AxioStar Plus, Carl Zeiss Axio Cam MRc-AxioVision 3.1) using a 516 to 560 nm filter, 590 nm filter barrier, in 20× objective with an integrated digital camera. For each treatment, 100 random nucleoids were analyzed, and the tail fluorescence was measured through the Comet Assay IV™ imaging system (Perceptive Instruments^©, Bury St Edmunds, England).

Compound: CC(C)=CCC1=C([O-])C(=O)c2ccccc2C1=O.F[P-](F)(F)(F)(F)F.[Ru+2].c1ccc(P(CP(c2ccccc2)c2ccccc2)c2ccccc2)cc1.c1cnc2c(c1)ccc1cccnc12 [complex (2), [Ru(Lap)(dppm)(phen)]PF6]
- population of apoptotic cells (DU-145 cells [1]; DU-145, 0.25 μM): 11.8%
- population of apoptotic cells (DU-145 cells [1]; DU-145, 0.5 μM): 22.7%
- population of apoptotic cells (DU-145 cells [1]; DU-145, 1.0 μM): 41.4%
- population of apoptotic cells (DU-145 cells [1]; DU-145, 1.5 μM): 70.2%
- fold lower concentration required for the same effect of cisplatin (DU-145 cells [1]; apoptotic DU-145 cells, vs cisplatin 25 μM): 100 fold
- activation of downstream apoptotic proteins [2]: increase in the activation of cleaved caspase-3, -9, and PARP
- DNA damage (comet tail intensity) (DU-145 cells [3]): significant DNA damage increase
